Measurements published in paper PMC11906898 (Nature Communications, 2025).
Where two headings read alike, the source gives them in different places.

Key:
in vitro = in vitro ADME; conditions: human, microsomes, pH 7.4
spontaneous ambulation = format: in vivo, C57BL6/J mice; conditions: C6-Quino 30 mg/kg s.c.; morphine 10 or 30 mg/kg s.c.
respiration rate = format: in vivo, C57BL6/J mice; conditions: 30 mg/kg sc
seizurogenic activity [1] = tested on: seizurogenic activity
seizurogenic activity [2] = conditions: mouse, in vivo

## CCN(CC)CCNC(=O)c1c(C)[nH]c(/C=C2\C(=O)Nc3ccc(F)cc32)c1C [Sunitinib]
In vitro
  half-life: 27 min

## CN1CC[C@]23c4c5ccc(O)c4O[C@H]2[C@@H](O)C=C[C@H]3[C@H]1C5 [morphine]
Spontaneous ambulation
  locomotion: significant increase in locomotion above baseline
Respiration rate
  breath rate: showed respiratory depression

## SNC80
Seizurogenic activity [1]; mouse, in vivo
  seizures after intracerebroventricular dosing: caused robust seizures
Seizurogenic activity [2]
  duration of seizures: 20 min
  seizures after sc dosing: produced robust seizures

## TAN67
Seizurogenic activity [1]; 100 nmol i.c.v.
  seizures after intracerebroventricular dosing: caused robust seizures
